Assay results published in ChEMBL document CHEMBL1132054, “Synthesis and properties of 2-(naphthosultamyl)methyl-carbapenems with potent anti-MRSA activity: discovery of L-786,392” (Bioorg Med Chem Lett, 1999).
≈ marks a conversion by molar mass, not a printed value.

Legend:
[1] = target: T1, Dipeptidase 1 (Sus scrofa) (UniProt P22412); experiment: Susceptibility to hog kidney dehydropeptidase-I.; format: functional, tissue-based; set-up: reference not given here
T1 sequence (whole entry): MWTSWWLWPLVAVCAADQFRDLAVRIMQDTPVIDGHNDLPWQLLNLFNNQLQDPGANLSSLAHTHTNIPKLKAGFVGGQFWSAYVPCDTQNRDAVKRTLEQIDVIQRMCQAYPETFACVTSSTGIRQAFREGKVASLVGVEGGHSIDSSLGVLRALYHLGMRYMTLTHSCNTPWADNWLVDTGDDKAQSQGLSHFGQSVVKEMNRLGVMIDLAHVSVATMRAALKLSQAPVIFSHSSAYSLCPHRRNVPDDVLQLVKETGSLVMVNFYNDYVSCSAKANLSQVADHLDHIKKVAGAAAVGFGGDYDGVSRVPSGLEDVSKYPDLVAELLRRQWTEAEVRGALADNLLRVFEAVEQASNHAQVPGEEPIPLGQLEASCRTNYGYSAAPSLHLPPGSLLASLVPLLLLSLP

Enterococcus faecium = experiment: In vitro antibacterial activity against MDREFm.; format: functional
Enterococcus faecalis = experiment: In vitro antibacterial activity against VREFs.; format: functional
Staphylococcus sp. = experiment: In vitro antibacterial activity against MRCNS.; format: functional
Streptococcus pneumoniae = experiment: In vitro antibacterial activity against PRSP.; format: functional
Staphylococcus aureus [2] = experiment: Effect of 43 mg/mL of Human Serum Albumin, Fraction V (HSA Fr. V) on antimicrobial activity was assessed against MSSA strain MB 2985; format: functional
Staphylococcus aureus [3] = experiment: Antibacterial activity against Methicillin sensitive Staphylococcus aureus-/+ HSA Fr. V; format: functional
Staphylococcus aureus [4] = experiment: In vitro antibacterial activity against MRSA.; format: functional
Mus musculus = organism: Mus musculus; experiment: Dose showing no visible effects (ataxia, somnolence) in two mice; format: functional
[5] = Lethal dose defined as as the lowest dose resulting in the death of a single mouse; format: toxicity; conditions: in vivo
Staphylococcus aureus [6] = experiment: Antibacterial activity against Methicillin sensitive Staphylococcus aureus; format: functional

Compound | Activity [1] | MIC (Enterococcus faecium) | MIC (Enterococcus faecalis) | MIC (Staphylococcus sp.) | MIC (Streptococcus pneumoniae) | MIC (Staphylococcus aureus [2]) | MIC (Staphylococcus aureus [3]) | MIC (Staphylococcus aureus [4]) | NOEL (Mus musculus) | Lethal dose [5] | MIC (Staphylococcus aureus [6])
C[C@@H](O)[C@H]1C(=O)N2C(C(=O)O)=C(CN3c4ccc(CC[N+]56CC[N+](CC(N)=O)(CC5)CC6)c5cccc(c45)S3(=O)=O)[C@H](C)[C@H]12.[Cl-].[Cl-] | 0.74 | 16 µg/mL | 32 µg/mL | 12.1 µg/mL | 1 µg/mL | 0.062 µg/mL | 0.062 µg/mL | 8 µg/mL |  |  | 
C[C@@H](O)[C@H]1C(=O)N2C(C(=O)O)=C(CN3c4cccc5c(CCC[N+]67CC[N+](CC(N)=O)(CC6)CC7)ccc(c45)S3(=O)=O)[C@H](C)[C@H]12.[Cl-].[Cl-] | 2.64 | 4 µg/mL | 8 µg/mL | 3.5 µg/mL | 0.25 µg/mL | 0.031 µg/mL | 0.016 µg/mL | 2 µg/mL | 125 mg/kg | 500 mg/kg | 
CCC[N+]12CC[N+](CCc3cc4c5c(cccc5c3)N(CC3=C(C(=O)O)N5C(=O)[C@H]([C@@H](C)O)[C@H]5[C@H]3C)S4(=O)=O)(CC1)CC2.[Cl-].[Cl-] |  | 3.2 µg/mL | 8 µg/mL | 1.5 µg/mL | 0.24 µg/mL |  |  | 1 µg/mL |  |  | 
C[C@@H](O)[C@H]1C(=O)N2C(C(=O)O)=C(CN3c4cccc5ccc(C[N+]67CC[N+](CC(N)=O)(CC6)CC7)c(c45)S3(=O)=O)[C@H](C)[C@H]12.[Cl-].[Cl-] | 0.01 | 20.2 µg/mL | 16 µg/mL | 4 µg/mL | 0.71 µg/mL | 0.031 µg/mL |  | 2.5 µg/mL |  |  | 0.016 µg/mL
CCC[N+]12CC[N+](CCc3ccc4c5c(cccc35)N(CC3=C(C(=O)O)N5C(=O)[C@H]([C@@H](C)O)[C@H]5[C@H]3C)S4(=O)=O)(CC1)CC2.[Cl-].[Cl-] | 1.93 | 6.4 µg/mL | 16 µg/mL | 4 µg/mL | 0.25 µg/mL |  |  | 2.2 µg/mL |  |  | 
C[C@@H](O)[C@H]1C(=O)N2C(C(=O)O)=C(CN3c4c(CC[N+]56CC[N+](CC(N)=O)(CC5)CC6)ccc5cccc(c45)S3(=O)=O)[C@H](C)[C@H]12.[Cl-].[Cl-] |  | > 64 µg/mL | > 64 µg/mL | > 64 µg/mL | > 64 µg/mL | 64 µg/mL | 32 µg/mL | > 64 µg/mL |  |  | 
C[C@@H](O)[C@H]1C(=O)N2C(C(=O)O)=C(CN3c4cccc5cc(CCC[N+]67CC[N+](CC(N)=O)(CC6)CC7)cc(c45)S3(=O)=O)[C@H](C)[C@H]12.[Cl-].[Cl-] | 1.25 | 6.4 µg/mL | 16 µg/mL | 4 µg/mL | 0.5 µg/mL | 0.031 µg/mL | 0.016 µg/mL | 2.2 µg/mL |  |  | 
CN[C@H](CC(C)C)C(=O)N[C@H]1C(=O)N[C@@H](CC(N)=O)C(=O)N[C@H]2C(=O)N[C@H]3C(=O)N[C@H](C(=O)N[C@H](C(=O)O)c4cc(O)cc(O)c4-c4cc3ccc4O)[C@H](O)c3ccc(c(Cl)c3)Oc3cc2cc(c3O[C@@H]2O[C@H](CO)[C@@H](O)[C@H](O)[C@H]2O[C@H]2C[C@](C)(N)[C@H](O)[C@H](C)O2)Oc2ccc(cc2Cl)[C@H]1O [VANCOMYCIN] |  | 20.2 µg/mL (≈ 13.9 µM) | > 64 µg/mL | 1.7 µg/mL (≈ 1.17 µM) | 0.35 µg/mL (≈ 0.242 µM) |  |  | 0.9 µg/mL (≈ 0.621 µM) |  |  | 
C[C@@H](O)[C@H]1C(=O)N2C(C(=O)O)=C(CN3c4cccc5cc(CC[N+]67CC[N+](CC(=O)Nc8ccccc8)(CC6)CC7)cc(c45)S3(=O)=O)[C@H](C)[C@H]12.[Cl-].[Cl-] | 0.64 | 3.2 µg/mL | 8 µg/mL | 0.3 µg/mL | 0.17 µg/mL |  |  | 0.2 µg/mL | <61 mg/kg | 245 mg/kg | 
C[C@@H](O)[C@H]1C(=O)N2C(C(=O)O)=C(CN3c4cccc5cc(CC[N+]67CC[N+](CCCO)(CC6)CC7)cc(c45)S3(=O)=O)[C@H](C)[C@H]12.[Cl-].[Cl-] | 0.85 | 4 µg/mL | 8 µg/mL | 1.5 µg/mL | 0.17 µg/mL |  |  | 1.1 µg/mL |  |  | 
C[C@@H](O)[C@H]1C(=O)N2C(C(=O)O)=C(CN3c4cccc5c(CC[N+]67CC[N+](CC(=O)Nc8ccccc8)(CC6)CC7)ccc(c45)S3(=O)=O)[C@H](C)[C@H]12.[Cl-].[Cl-] | 1.4 | 4 µg/mL | 4 µg/mL | 1.5 µg/mL | 0.12 µg/mL |  |  | 0.8 µg/mL | 31 mg/kg | 63 mg/kg | 
C[C@@H](O)[C@H]1C(=O)N2C(C(=O)O)=C(SCCNC=N)C[C@H]12 [IMIPENEM ANHYDROUS] | 1 | > 64 µg/mL | 8 µg/mL (≈ 26.7 µM) | > 64 µg/mL | 0.25 µg/mL (≈ 0.835 µM) | 0.016 µg/mL (≈ 0.0534 µM) | 0.016 µg/mL (≈ 0.0534 µM) | > 40 µg/mL |  |  | 
C[C@@H](O)[C@H]1C(=O)N2C(C(=O)O)=C(CN3c4cccc5cc(C[N+]67CC[N+](CC(N)=O)(CC6)CC7)cc(c45)S3(=O)=O)[C@H](C)[C@H]12.[Cl-].[Cl-] | 0.21 | 8 µg/mL | 16 µg/mL | 3 µg/mL | 0.5 µg/mL | 0.031 µg/mL | 0.016 µg/mL | 2 µg/mL |  |  | 
C[C@@H](O)[C@H]1C(=O)N2C(C(=O)O)=C(CN3c4cccc5cc(CC[N+]67CC[N+](CC(N)=O)(CC6)CC7)cc(c45)S3(=O)=O)[C@H](C)[C@H]12.[Cl-].[Cl-] | 0.75 | 3.2 µg/mL | 8 µg/mL | 0.6 µg/mL | 0.17 µg/mL | 0.016 µg/mL | 0.016 µg/mL | 0.5 µg/mL | 125 mg/kg | 500 mg/kg | 
C[C@@H](O)[C@H]1C(=O)N2C(C(=O)O)=C(CN3c4cccc5c(CC[N+]67CC[N+](CCCO)(CC6)CC7)ccc(c45)S3(=O)=O)[C@H](C)[C@H]12.[Cl-].[Cl-] | 1.9 | 6.4 µg/mL | 16 µg/mL | 0.9 µg/mL | 0.5 µg/mL |  |  | 0.6 µg/mL | 250 mg/kg | > 500 mg/kg | 
C[C@@H](O)[C@H]1C(=O)N2C(C(=O)O)=C(CN3c4ccc(C[N+]56CC[N+](CC(N)=O)(CC5)CC6)c5cccc(c45)S3(=O)=O)[C@H](C)[C@H]12.[Cl-].[Cl-] | 0.81 | 32 µg/mL | 32 µg/mL | 12.1 µg/mL | 1 µg/mL | 0.125 µg/mL | 0.031 µg/mL | 4.2 µg/mL |  |  | 
C[C@@H](O)[C@H]1C(=O)N2C(C(=O)O)=C(CN3c4cccc5c(C[N+]67CC[N+](CC(N)=O)(CC6)CC7)ccc(c45)S3(=O)=O)[C@H](C)[C@H]12.[Cl-].[Cl-] | 0.74 | 8 µg/mL | 16 µg/mL | 1.5 µg/mL | 0.5 µg/mL | 0.031 µg/mL | 0.031 µg/mL | 1 µg/mL | 250 mg/kg | 500 mg/kg | 
C[C@@H](O)[C@H]1C(=O)N2C(C(=O)[O-])=C(CN3c4cccc5cccc(c45)S3(=O)=O)[C@H](C)[C@H]12.[Na+] | 0.99 | 25.4 µg/mL | 8 µg/mL | 3.5 µg/mL | 0.25 µg/mL | 0.25 µg/mL |  | 0.7 µg/mL |  |  | 0.016 µg/mL
